Source: the supplement of paper PMC10307832

Experiments:
Experiment in all cases: relative viability (nuclei count vs DMSO), 5 days (fraction); higher = more cells survive
Bleomycin + Phenformin = compound: CC1=C(N=C(N=C1N)[C@H](CC(=O)N)NC[C@@H](C(=O)N)N)C(=O)N[C@@H]([C@H](C2=CN=CN2)OC3C(C(C(C(O3)CO)O)O)OC4C(C(C(C(O4)CO)O)OC(=O)N)O)C(=O)N[C@H](C)[C@H]([C@H](C)C(=O)N[C@@H]([C@@H](C)O)C(=O)NCCC5=NC(=CS5)C6=NC(=CS6)C(=O)NCCC[S+](C)C)O [Bleomycin] + N=C(N)NC(=N)NCCc1ccccc1 [Phenformin] (partner 250 µM); conditions: main component drawn
Method in brief: (§1)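 Lung cancer cell lines were pin-tool dosed in 1536-well plates on the day after seeding, with either a lone drug or a fixed anchor-drug dose plus five library-drug doses (not always all listed) in √10 steps. Nuclei were counted on 4× images after 5 days. Relative viability is the ratio of treated-well to vehicle-well nuclei counts, with each value a median of duplicate plates.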

Etoposide + Vorinostat = compound: COc1cc([C@@H]2c3cc4c(cc3[C@@H](O[C@@H]3O[C@@H]5CO[C@@H](C)O[C@H]5[C@H](O)[C@H]3O)[C@H]3COC(=O)[C@H]23)OCO4)cc(OC)c1O [Etoposide] + O=C(CCCCCCC(=O)Nc1ccccc1)NO [Vorinostat] (partner 1 µM)
Method in brief: as §1

Bleomycin + Alpelisib = compound: CC1=C(N=C(N=C1N)[C@H](CC(=O)N)NC[C@@H](C(=O)N)N)C(=O)N[C@@H]([C@H](C2=CN=CN2)OC3C(C(C(C(O3)CO)O)O)OC4C(C(C(C(O4)CO)O)OC(=O)N)O)C(=O)N[C@H](C)[C@H]([C@H](C)C(=O)N[C@@H]([C@@H](C)O)C(=O)NCCC5=NC(=CS5)C6=NC(=CS6)C(=O)NCCC[S+](C)C)O [Bleomycin] + Cc1nc(NC(=O)N2CCC[C@H]2C(N)=O)sc1-c1ccnc(C(C)(C)C(F)(F)F)c1 [Alpelisib] (partner 2 µM); conditions: main component drawn
Method in brief: as §1

Bleomycin + Trametinib = compound: CC1=C(N=C(N=C1N)[C@H](CC(=O)N)NC[C@@H](C(=O)N)N)C(=O)N[C@@H]([C@H](C2=CN=CN2)OC3C(C(C(C(O3)CO)O)O)OC4C(C(C(C(O4)CO)O)OC(=O)N)O)C(=O)N[C@H](C)[C@H]([C@H](C)C(=O)N[C@@H]([C@@H](C)O)C(=O)NCCC5=NC(=CS5)C6=NC(=CS6)C(=O)NCCC[S+](C)C)O [Bleomycin] + CC(=O)Nc1cccc(-n2c(=O)n(C3CC3)c(=O)c3c(Nc4ccc(I)cc4F)n(C)c(=O)c(C)c32)c1 [Trametinib] (partner 0.02 µM); conditions: main component drawn
Method in brief: as §1

Row | Cell Line | relative viability (Bleomycin + Phenformin; first compound 0.01 µM) | relative viability (Bleomycin + Phenformin; first compound 0.03162 µM) | relative viability (Bleomycin + Phenformin; first compound 0.1 µM) | relative viability (Bleomycin + Phenformin; first compound 0.3162 µM) | relative viability (Bleomycin + Phenformin; first compound 1 µM) | relative viability (Etoposide + Vorinostat; first compound 0.03162 µM) | relative viability (Etoposide + Vorinostat; first compound 0.1 µM) | relative viability (Etoposide + Vorinostat; first compound 0.3162 µM) | relative viability (Etoposide + Vorinostat; first compound 1 µM) | relative viability (Bleomycin + Alpelisib; first compound 0.01 µM) | relative viability (Bleomycin + Alpelisib; first compound 0.03162 µM) | relative viability (Bleomycin + Alpelisib; first compound 0.1 µM) | relative viability (Bleomycin + Alpelisib; first compound 0.3162 µM) | relative viability (Bleomycin + Alpelisib; first compound 1 µM) | relative viability (Bleomycin + Trametinib; first compound 0.01 µM) | relative viability (Bleomycin + Trametinib; first compound 0.03162 µM) | relative viability (Bleomycin + Trametinib; first compound 0.1 µM) | relative viability (Bleomycin + Trametinib; first compound 0.3162 µM) | relative viability (Bleomycin + Trametinib; first compound 1 µM) | relative viability (Etoposide + Vorinostat; first compound 0.01 µM)
1 | NCI-H1993 | 0.501 | 0.512 | 0.478 | 0.419 | 0.44 | 0.683 | 0.507 | 0.718 | 0.284 | 0.648 | 0.642 | 0.618 | 0.536 | 0.522 | 0.493 | 0.476 | 0.459 | 0.391 | 0.346 | 
2 | NCI-H2009 | 0.474 | 0.512 | 0.489 | 0.403 | 0.383 | 0.631 | 0.571 | 0.597 | 0.409 | 1.05 | 1.16 | 1.16 | 0.84 | 0.531 | 0.296 | 0.275 | 0.276 | 0.258 | 0.224 | 0.704
3 | NCI-H2023 | 0.34 | 0.326 | 0.312 | 0.157 | 0.101 | 0.626 | 0.335 | 0.176 | 0.0989 | 0.403 | 0.536 | 0.325 | 0.149 | 0.101 | 0.277 | 0.383 | 0.363 | 0.148 | 0.129 | 0.442
4 | NCI-H2085 | 0.599 | 0.595 | 0.55 | 0.329 | 0.306 | 0.809 | 0.635 | 0.75 | 0.301 | 0.715 | 0.778 | 0.672 | 0.436 | 0.378 | 0.549 | 0.514 | 0.384 | 0.243 | 0.226 | 0.762
5 | NCI-H2087 |  | 0.465 | 0.379 | 0.184 | 0.162 | 0.975 | 0.641 | 0.524 | 0.23 | 0.865 | 0.924 | 0.795 | 0.196 | 0.165 | 0.204 | 0.146 | 0.176 | 0.177 | 0.135 | 1.08
6 | NCI-H2126 | 0.55 | 0.536 | 0.559 | 0.349 | 0.303 | 0.911 | 0.512 | 0.603 | 0.227 | 0.758 | 0.789 | 0.808 | 0.6 | 0.552 | 0.525 | 0.583 | 0.594 | 0.52 | 0.508 | 0.707
7 | NCI-H2170 | 0.415 | 0.426 | 0.422 | 0.374 | 0.338 | 0.846 |  | 0.755 | 0.438 | 0.775 | 0.815 | 0.792 | 0.58 | 0.552 | 0.89 | 0.89 | 0.808 | 0.559 | 0.468 | 0.782
8 | NCI-H2228 | 0.314 | 0.312 | 0.301 | 0.185 | 0.147 | 0.668 | 1.07 | 0.272 | 0.142 | 0.905 | 0.959 | 0.696 | 0.341 | 0.376 | 0.537 | 0.468 | 0.431 | 0.269 | 0.26 | 0.577
9 | NCI-H2347 | 0.374 | 0.437 | 0.222 | 0.255 | 0.286 | 0.646 | 0.475 | 0.382 | 0.432 | 0.892 | 1.05 | 0.997 | 0.51 | 0.478 | 0.309 | 0.254 | 0.29 | 0.279 | 0.226 | 0.412
10 | NCI-H2405 | 0.333 | 0.399 | 0.383 | 0.263 | 0.262 | 1.12 | 0.765 | 0.742 | 0.27 | 0.648 | 0.704 | 0.615 | 0.312 | 0.306 | 0.537 | 0.529 | 0.578 | 0.444 | 0.313 | 1.11
11 | NCI-H3122 | 0.341 | 0.379 | 0.5 | 0.194 | 0.198 | 1.11 | 0.598 | 0.66 | 0.224 | 0.737 | 0.709 | 0.778 | 0.378 | 0.349 | 0.257 | 0.247 | 0.231 | 0.185 | 0.187 | 1.04
12 | PC-3 [JPC-3] | 0.476 | 0.511 | 0.475 | 0.364 | 0.336 | 1.09 | 0.69 | 0.694 | 0.518 | 0.847 | 0.993 | 0.905 | 0.655 | 0.506 | 0.68 | 0.722 | 0.617 | 0.449 | 0.433 | 0.796
13 | PC-14 | 0.433 | 0.341 | 0.197 | 0.0557 | 0.0309 | 0.89 | 0.558 | 0.495 | 0.234 | 0.626 | 0.534 | 0.303 | 0.0745 | 0.067 | 0.243 | 0.205 | 0.133 | 0.0541 | 0.0419 | 0.762
14 | RERF-LC-KJ | 0.287 | 0.271 | 0.269 | 0.209 | 0.183 | 0.728 | 0.5 | 0.621 | 0.412 | 0.58 | 0.589 | 0.53 | 0.253 | 0.266 | 0.678 | 0.563 | 0.492 | 0.272 | 0.229 | 0.624
15 | SK-LU-1 | 0.46 | 0.696 | 0.5 | 0.31 | 0.209 | 0.671 | 0.638 | 0.273 | 0.249 | 0.889 | 0.735 | 0.902 | 0.502 | 0.412 | 0.415 | 0.487 | 0.464 | 0.43 | 0.392 | 0.696
16 | SK-MES-1 | 0.58 | 0.617 | 0.546 | 0.217 | 0.174 | 1.2 | 0.873 | 0.806 | 0.351 | 0.731 | 0.531 | 0.59 | 0.315 | 0.185 | 0.501 | 0.532 | 0.527 | 0.28 | 0.219 | 1.11
17 | SW 1573 | 0.276 | 0.316 | 0.272 | 0.205 | 0.14 | 0.625 | 0.359 | 0.228 | 0.142 | 0.643 | 0.64 | 0.596 | 0.302 | 0.342 | 0.47 | 0.424 | 0.322 | 0.191 | 0.141 | 0.646
